Laboratory results published in publication PMC5433098, “Intrinsic Toxin-Derived Peptides Destabilize and Inactivate Clostridium difficile TcdB” (mBio, 2017).

What was measured:
TcdB2Δ1853–2366 [1] = test: Surface plasmon resonance (SPR); format: binding, Clostridium difficile; settings: 40 µM PepB2, 20 μl/min, 25°C
Experimental: (§1) Surface plasmon resonance (SPR) analysis was performed using a Biacore 3000 instrument (OMRF Biacore Core Facility). TcdB2, TcdB2Δ1853–2366, TcdB2_1851–2366, or BSA was captured on a CM5 sensor chip via amine coupling chemistry based on EDC/N-hydroxysuccinimide (NHS) activation of the carboxymethyl groups of the sensor chip surface. For TcdB2 conjugation, 1 μM TcdB2 or TcdB2Δ1853–2366 was injected at a flow rate of 10 μl/min. TcdB2_1851–2366 was injected at a concentration of 2.5 μM with a flow rate of 10 μl/min. After protein conjugation, ethanolamine was passed over the sensor chip to deactivate unreacted NHS esters. The running buffer used for the binding experiments consisted of 25 mM HEPES (pH 7.4), 150 mM NaCl, and 0.01% Tween 20, and the chip regeneration buffer consisted of 50 mM NaOH and 1 M NaCl.

TcdB2 [2] = test: Surface plasmon resonance (SPR); format: binding, Clostridium difficile
Experimental: as §1

TcdB [3] = test: Dialysis (50-kDa cutoff) followed by cytotoxicity assay in CHO-K1 cells; format: cell-based, Clostridium difficile; settings: for TcdB-inhibitory activity retained after dialysis: 125 μM inhibitor in serum-free F-12–K, 50-kDa-cutoff membrane into PBS, about 62.5 μM tested, CHO-K1, 24 h, 0.4 pM TcdB, n = 3
Experimental: (§2) In cytotoxicity assays, CHO-K1 cells were seeded in 96-well plates at a density of 1.0 × 10^4 cells/well and allowed to attach overnight. Cells were incubated with toxin or toxin plus peptide for 24 h, and then cell viability was quantified by the cell counting kit 8 (CCK-8) assay (Sigma), a WST-8 dye-based colorimetric reaction.
Inhibitors were diluted to 125 μM in F-12–K medium lacking FBS. Then, 1 ml of the diluted inhibitor was dialyzed with a 50-kDa-cutoff membrane into 2 liters of PBS while stirring. After 3 h, the PBS was discarded and replaced with an additional 1.5 liters of PBS. After 2 more hours of stirring dialysis, the inhibitors were removed from the dialysis tube and diluted into F-12–K medium containing 20% FBS. This produced an inhibitor concentration of approximately 62.5 μM that was then tested for TcdB inhibition using a cytotoxicity assay described above. As controls, a portion of the diluted inhibitors were subjected to mock dialysis conditions and also tested in a cytotoxicity assay.

[4] = test system: bovine serum albumin (BSA); test: Surface plasmon resonance (SPR), reference channel; format: binding
Experimental: as §1

TcdB [5] = test: TcdB associating with CHO-K1 cells (immunoblot); format: cell-based, Clostridium difficile; settings: 37°C, 4 nM TcdB, 50 µM peptide
Experimental: CHO-K1 cells were cultured as described above and were seeded the day before the experiment in 12-well plates at a density of 1.0 × 10^5 cells/well. These cells were then exposed for 10 min or 30 min at 37°C to 4 nM of TcdB in the presence and absence of peptide. After this exposure, the cells were then washed twice with 1 ml of complete medium, and then total proteins were extracted by adding cold lysis buffer (1% SDS, 50 mM Tris-HCl [pH 7.4], 5 mM EDTA, and a protease inhibitor mixture). For each condition, equal amounts of total protein were analyzed by immunoblot probing with antibodies to the amino-terminal domain of TcdB (R&D Systems; catalog no. AF6246) or an antibody to glyceraldehyde-3-phosphate dehydrogenase (GAPDH) (Abcam; catalog no. AB8245).

TcdB [6] = test: In vitro Rac1 glucosylation assay; format: biochemical, Clostridium difficile; settings: TcdB 1.2-24 nM, 400 nM GST-Rac1, 40 μM UDP-glucose, 37°C 1 h, 50 µM peptide, n = 3
Experimental: (§3) To determine how PepB2 influences the glucosylation activity of TcdB, 400 nM purified GST-Rac1 and 40 μM UDP-glucose were combined with a range of concentrations of TcdB (1.2 nM to 24 nM) or GTD (0.5 nM to 25 nM). These reactions were performed in 20 μl of buffer consisting of 50 mM HEPES (pH 7.5), 100 mM KCl, 2 mM MgCl2, 1 mM MnCl2, and 100 μg/ml BSA. The reactions were carried out at 37°C for 1 h and were stopped by heating the samples at 95°C for 7 min in sample buffer (62.5 mM Tris-HCl [pH 6.8], 2% SDS, 10% glycerol, 5% β-mercaptoethanol, and 0.001% bromphenol blue). An immunoblotting assay was then performed by probing with a mouse monoclonal antibody to total Rac1 (EMD Millipore; catalog no. 05-389) or a mouse monoclonal antibody recognizing nonglucosylated Rac1 (BD Bioscience; catalog no. 610651).

[7] = test system: purified recombinant GTD (TcdB aa 1 to 543); test: In vitro Rac1 glucosylation assay; format: biochemical, Clostridium difficile; settings: GTD 0.5-25 nM, 50 µM peptide, n = 2
Experimental: as §3

[8] = Oligomerization by BS3 cross-linking and SDS-PAGE; format: physicochemical; settings: 1.4 mM peptide, 5 mM BS3, 25 mM HEPES pH 7.4, 150 mM NaCl, 30 min 25°C; 4 to 20% SDS-PAGE, Coomassie
Experimental: Peptides were cross-linked using bis(sulfosuccinimidyl)suberate (BS^3), which is a water-soluble homobifunctional cross-linking agent that reacts with primary amine groups. The cross-linking reaction was performed with 1.4 mM peptide and 5 mM BS^3 in a buffer consisting of 25 mM HEPES (pH 7.4) and 150 mM NaCl. The reaction proceeded for 30 min at 25°C and then was quenched with 100 mM Tris, pH 8.0.

TcdA = test: Cytotoxicity assay in CHO-K1 cells; format: cell-based, Clostridium difficile; settings: 24 h, 50 µM peptide, n = 3
Experimental: as §2

TcdB2Δ1853–2366 [9] = test: Cytotoxicity assay in CHO-K1 cells; format: cell-based, Clostridium difficile; settings: 24 h, n = 3
Experimental: as §2

TcdB [10] = test: In vitro autoprocessing assay with IP6; format: biochemical, Clostridium difficile; settings: 37 pM TcdB, 500 µM IP6, 1 h 37°C, 50 µM peptide, n = 4
Experimental: TcdB autoprocessing was activated by incubating 37 pM TcdB with 500 µM inositol hexakisphosphate (IP6) for 1 h at 37°C in a buffer consisting of 50 mM HEPES (pH 7.5), 150 mM NaCl, and 20 mM dithiothreitol (DTT). After the reaction was stopped by heating the samples at 95°C for 7 min in SDS-PAGE sample buffer, cleavage of TcdB was evaluated by an immunoblot assay probing with antibodies to the amino-terminal domain of TcdB (R&D Systems; catalog no. AF6246).

TcdB [11] = test: Intracellular Rac1 glucosylation in CHO-K1 cells (immunoblot); format: cell-based, Clostridium difficile; settings: TcdB 0.037-3.7 pM, 25 h, 50 µM peptide
Experimental: CHO-K1 cells were cultured as described above and were seeded the day before the experiment in 24-well plates at a density of 5.0 × 10^4 cells/well. TcdB was then combined with peptide in complete culture medium and added to cells. Following this exposure, total proteins were extracted by removing culture medium and adding cold lysis buffer (1% SDS, 50 mM Tris-HCl [pH 7.4], 5 mM EDTA, and a protease inhibitor mixture). For each condition, equal amounts of total protein were analyzed by immunoblot probing with a mouse monoclonal antibody to total Rac1 (EMD Millipore; catalog no. 05-389) or a mouse monoclonal antibody recognizing nonglucosylated Rac1 (BD Bioscience; catalog no. 610651).

[12] = test system: Bacillus anthracis lethal toxin (LT)
TcdB1 [13] = test: Transepithelial electrical resistance (TER) in T84 cells; settings: polarized T84 cells, 40 pM TcdB1, 50 µM peptide, n = 4
TcdB1 [14] = test: Cytotoxicity assay in CHO-K1 cells (CCK-8); format: cell-based, Clostridium difficile; settings: 24 h, 50 µM peptide, n = 3
Experimental: as §2

TcdB2 [15] = test: Cytotoxicity assay in CHO-K1 cells (CCK-8); format: cell-based, Clostridium difficile; settings: 24 h, 50 µM peptide, n = 3
Experimental: as §2

CC[C@H](C)[C@H](NC(=O)[C@H](CCCCN)NC(=O)[C@H](CC(=O)O)NC(=O)[C@H](CO)NC(=O)[C@@H](NC(=O)[C@@H](NC(=O)[C@H](CC(N)=O)NC(=O)CNC(=O)[C@H](CCCCN)NC(=O)[C@H](Cc1ccccc1)NC(=O)[C@@H](NC(=O)[C@@H](N)CC(N)=O)C(C)C)[C@@H](C)O)[C@@H](C)CC)C(=O)N[C@@H](CO)C(=O)N[C@@H](Cc1ccccc1)C(=O)N[C@@H](CC(N)=O)C(=O)N[C@@H](Cc1ccccc1)C(=O)N[C@@H](CO)C(=O)N[C@@H](CC(=O)O)C(=O)N[C@@H](CCCCN)C(=O)O [PepB2]
binding to TcdB2Δ1853–2366 compared with equal moles of TcdB2 (TcdB2Δ1853–2366 [1]): much higher levels of PepB2 bound TcdB2 than TcdB2Δ1853–2366
binding to sensor chip-immobilized TcdB (TcdB2 [2]; SPR, Biacore 3000, CM5 chip, 5 μl/min, 25°C, BSA reference subtracted): binds TcdB
number of peptide molecules bound per single molecule of TcdB (TcdB2 [2]; calculated from change in response units on immobilized TcdB): approximately 250 molecules
TcdB-inhibitory activity retained after dialysis (TcdB [3]): TcdB-inhibitory activity was not removed
size of inhibitory oligomer (TcdB [3]; retained by 50-kDa-cutoff dialysis membrane): > 50 kDa
binding to BSA-coated reference channel [4]: did not bind
TcdB association with cells, 10 min (TcdB [5]; 10 min, n = 4): significantly reduced
TcdB association with cells, 30 min (TcdB [5]; 30 min): not reduced
TcdB proteolytic cleavage on cells, 30 min (TcdB [5]; 30 min): causes TcdB to become susceptible to proteolytic cleavage
effect on in vitro glucosylation of Rac1 by TcdB (TcdB [6]): did not suppress the in vitro glucosylation of Rac1 by TcdB but instead appeared to increase enzymatic activity
effect on glucosyltransferase activity of purified recombinant GTD [7]: no effect on the glucosyltransferase activity
oligomerization after BS3 cross-linking [8]: unable to migrate by SDS-PAGE
inhibition of TcdA cytotoxicity (TcdA): did not block cytotoxicity
decrease in sensitivity of TcdB2Δ1853–2366 to peptide relative to full-length TcdB2 (TcdB2Δ1853–2366 [9]): 10 fold
effect on IP6-induced TcdB autoproteolysis (TcdB [10]): enhanced the efficiency of IP6-induced TcdB autoproteolysis
effect on Rac1 glucosylation by TcdB in treated cells (TcdB [11]): prevented Rac1 glucosylation by TcdB in treated cells
inhibition of Bacillus anthracis lethal toxin cytotoxicity [12]: did not block cytotoxicity
effect on TcdB-mediated disruption of transepithelial resistance (TcdB1 [13]): prevented TcdB-mediated disruption of transepithelial resistance
increase of the 50% toxic concentration (TC50) of TcdB1 (TcdB1 [14]; range of toxin concentrations): 500 fold
increase of the 50% toxic concentration (TC50) of TcdB2 (TcdB2 [15]; range of toxin concentrations): 200 fold

PepB1: peptide based on the 1769-to-1787 region of TcdB1 (NVFKDKTLANKLSFNFSDK; UniProt P18177 1769-1787, looked up, fragment)
oligomerization after BS3 cross-linking [8]: migrated into the gel in a similar pattern as uncross-linked control peptides
inhibition of TcdB1 cytotoxicity (TcdB1 [14]): did not inhibit the cytotoxicity
inhibition of TcdB2 cytotoxicity (TcdB2 [15]): did not inhibit the cytotoxicity

COC(=O)CC[C@@H](C)[C@H]1CC[C@H]2[C@@H]3[C@H](O)C[C@@H]4C[C@H](O)CC[C@]4(C)[C@H]3C[C@H](O)[C@]12C [methyl cholate, reference compound]
TcdB-inhibitory activity retained after dialysis (TcdB [3]): toxin-inhibitory activity was lost
